From ChEMBL document CHEMBL1149346, “Activity of nitrogen-containing and non-nitrogen-containing bisphosphonates on tumor cell lines” (J Med Chem, 2006)

Experiments:
Type in all cases: functional, cell-based
[1] = tested on: MCF7; assay: Antiproliferative activity against human MCF7 cell line by MTT assay
[2] = tested on: NCI-H460; assay: Antiproliferative activity against human NCI-H460 cell line by MTT assay
[3] = tested on: SF-268; assay: cells; conditions: Homo sapiens
Description: Antiproliferative activity against human SF-268 cell line by MTT assay

[4] = tested on: 13762; assay: Antiproliferative activity against rat 13762 cell line

| Compound | IC50 [1] [µM] | IC50 [2] [µM] | IC50 [3] [µM] | IC50 [4] [µM] |
| --- | --- | --- | --- | --- |
| O=P([O-])(O)C(O)(C[n+]1ccc(Cc2ccccc2)cc1)P(=O)(O)O (centres undefined) | 191 | 211 | 111 |  |
| O=P([O-])(O)C(O)(C[n+]1ccccc1)P(=O)(O)O (centres undefined) | 79.4 | 69.9 | 46.8 |  |
| CCc1ccc[n+](CC(O)(P(=O)([O-])O)P(=O)(O)O)c1 (centres undefined) | 50.7 | 71.7 | 45.8 |  |
| O=P([O-])(O)C(O)(C[n+]1cccc(-c2ccccc2)c1)P(=O)(O)O (centres undefined) | 44.2 | 52.2 | 27.2 |  |
| Cc1ccc[n+](CC(O)(P(=O)([O-])O)P(=O)(O)O)c1 (centres undefined) | 98.1 | 66.8 | 52.6 |  |
| O=P([O-])(O)C(O)(C[n+]1cccc(-c2ccc(O)cc2)c1)P(=O)(O)O (centres undefined) | 37.2 | 74.4 | 30.7 |  |
| O=P([O-])(O)C(O)(C[n+]1cccc(F)c1)P(=O)(O)O (centres undefined) | 58.1 | 65.8 | 49.3 |  |
| O=P(O)(O)C(Cc1ccc(Br)c(Br)c1)P(=O)(O)O | 533 | 446 | 349 |  |
| O=P([O-])(O)C(O)(C[n+]1cccc(-c2ccc(F)cc2)c1)P(=O)(O)O (centres undefined) | 17.3 | 5.6 | 6.5 |  |
| CC(C)OC(=O)OCOP(=O)(OCOC(=O)OC(C)C)C(Cc1cccc(C#N)c1)P(=O)(OCOC(=O)OC(C)C)OCOC(=O)OC(C)C | 58.6 | 22.6 | 7.77 |  |
| CC(C)(C)C(=O)OCOP(=O)(OCOC(=O)C(C)(C)C)C(Cc1ccc(Br)c(Br)c1)P(=O)(OCOC(=O)C(C)(C)C)OCOC(=O)C(C)(C)C | 0.22 | 0.62 | 0.65 |  |
| CC(C)OC(=O)OCOP(=O)(OCOC(=O)OC(C)C)C(Cc1ccc(Cl)c(Cl)c1)P(=O)(OCOC(=O)OC(C)C)OCOC(=O)OC(C)C | 1.97 | 4.85 | 4.78 |  |
| CC(C)OC(=O)OCOP(=O)(OCOC(=O)OC(C)C)C(Cc1ccc(F)c(F)c1)P(=O)(OCOC(=O)OC(C)C)OCOC(=O)OC(C)C | 15.2 | 20.1 | 28.3 |  |
| Cc1ccc2ccc[n+](CC(O)(P(=O)([O-])O)P(=O)(O)O)c2c1 (centres undefined) | 289 | 270 | 257 |  |
| CN(C)c1cc[n+](CC(O)(P(=O)([O-])O)P(=O)(O)O)cc1 (centres undefined) | > 10000 | > 10000 | > 10000 |  |
| CC(C)(C)C(=O)OCOP(=O)(OCOC(=O)C(C)(C)C)C(Cc1cccc(-c2cccc(-c3ccccc3)c2)c1)P(=O)(OCOC(=O)C(C)(C)C)OCOC(=O)C(C)(C)C | 2.62 | 1.64 | 2.38 |  |
| O=P([O-])(O)C(C[n+]1ccc(-c2ccccc2-c2ccccc2)cc1)P(=O)(O)O (centres undefined) | 280 | 284 | 243 |  |
| N#Cc1cccc(CC(P(=O)(O)O)P(=O)(O)O)c1 | > 1000 | > 1000 | > 1000 |  |
| CC(C)(C)C(=O)OCOP(=O)(OCOC(=O)C(C)(C)C)C(CNc1ccccn1)P(=O)(OCOC(=O)C(C)(C)C)OCOC(=O)C(C)(C)C | 6.44 | 5.95 | 7.89 |  |
| Cc1ccc[n+](CC(P(=O)([O-])O)P(=O)(O)O)c1 (centres undefined) | 38.1 | 62 | 44.6 |  |
| O=P(O)(O)C(O)(CCc1cccc(-c2ccccc2-c2ccccc2)c1)P(=O)(O)O | 146 | 133 | 143 |  |
| O=P([O-])(O)C(C[n+]1cccc(Br)c1)P(=O)(O)O (centres undefined) | 143 | 92.9 | 109 |  |

| Compound | IC50 [1] [µM] | IC50 [2] [µM] | IC50 [3] [µM] | IC50 [4] [µM] |
| --- | --- | --- | --- | --- |
| O=P([O-])(O)C(C[n+]1cccc(S(=O)(=O)N2CCCC2)c1)P(=O)(O)O (centres undefined) | > 10000 | > 10000 | > 10000 |  |
| O=P(O)(O)C(O)(Cc1cccc(-c2cccc(-c3ccccc3)c2)c1)P(=O)(O)O | 152 | 140 | 130 |  |
| O=P([O-])(O)C(O)(C[n+]1ccc(-c2ccncc2)cc1)P(=O)(O)O (centres undefined) | > 10000 | > 10000 | > 10000 |  |
| O=P(O)(O)C(O)(CCc1cccc(-c2ccc(-c3ccccc3)cc2)c1)P(=O)(O)O | 196 | 132 | 175 |  |
| O=P(O)(O)C(CNCc1cccc(-c2ccccc2)c1)P(=O)(O)O | 46 | 5.73 | 6.18 |  |
| O=P([O-])(O)C(O)(C[n+]1cccc(Cl)c1)P(=O)(O)O (centres undefined) | 121 | 58.1 | 58.3 |  |
| O=P(O)(O)C(O)(c1cccc(-c2cccc(-c3ccccc3)c2)c1)P(=O)(O)O | 310 | 285 | 303 |  |
| COc1cc[n+](CC(O)(P(=O)([O-])O)P(=O)(O)O)cc1 (centres undefined) | 409 | 644 | 436 |  |
| O=P([O-])(O)C(C[n+]1cccc(-c2ccccc2-c2ccccc2)c1)P(=O)(O)O (centres undefined) | 236 | 208 | 232 |  |
| O=P(O)(O)C(O)(Cc1cccc(-c2ccccc2-c2ccccc2)c1)P(=O)(O)O | 92.7 | 86.1 | 58 |  |
| O=P([O-])(O)C(C[n+]1ccc(-c2cccc(-c3ccccc3)c2)cc1)P(=O)(O)O (centres undefined) | > 10000 | > 10000 | > 10000 |  |
| O=P(O)(O)C(O)(Cc1ccc(-c2ccccc2-c2ccccc2)cc1)P(=O)(O)O | 1060 | 329 | 475 |  |
| O=P([O-])(O)C(C[n+]1cccc(C(F)(F)F)c1)P(=O)(O)O (centres undefined) | 129 | 142 | 132 |  |
| O=P(O)(O)C(CNc1ccncc1)P(=O)(O)O | 22.7 | 12.6 | 14.4 |  |
| O=P(O)(O)C(CNc1ccccn1)P(=O)(O)O | 223 | 63.7 | 147 |  |
| O=P([O-])(O)C(O)(C[n+]1cccc(Cc2ccccc2)c1)P(=O)(O)O (centres undefined) | 69.2 | 18.5 | 67 |  |
| CCCCc1ccc[n+](CC(O)(P(=O)([O-])O)P(=O)(O)O)c1 (centres undefined) | 21.4 | 14.8 | 13.1 |  |
| O=P([O-])(O)C(C[n+]1ccc2ccccc2c1)P(=O)(O)O (centres undefined) | > 10000 | > 10000 | > 10000 |  |
| CC(C)(C)C(=O)OCOP(=O)(OCOC(=O)C(C)(C)C)C(Cc1ccc(Cl)c(Cl)c1)P(=O)(OCOC(=O)C(C)(C)C)OCOC(=O)C(C)(C)C | 0.34 | 2.7 | 1.43 |  |
| O=P([O-])(O)C(O)(C[n+]1cccc(Br)c1)P(=O)(O)O (centres undefined) | 33.5 | 54.5 | 55.7 |  |
| O=P([O-])(O)C(C[n+]1ccc(C(F)(F)F)cc1)P(=O)(O)O (centres undefined) | > 10000 | > 10000 | > 10000 |  |
| O=P([O-])(O)C(C[n+]1cccc(I)c1)P(=O)(O)O (centres undefined) | 123 | 53.7 | 89.3 |  |

| Compound | IC50 [1] [µM] | IC50 [2] [µM] | IC50 [3] [µM] | IC50 [4] [µM] |
| --- | --- | --- | --- | --- |
| CCCCc1ccc[n+](CC(P(=O)([O-])O)P(=O)(O)O)c1 (centres undefined) | 26.5 | 33 | 24.1 |  |
| O=P([O-])(O)C(O)(C[n+]1cccc(-c2ccc(C(F)(F)F)cc2)c1)P(=O)(O)O (centres undefined) | 14.5 | 23.2 | 10.4 |  |
| Cc1ccc2c(ccc[n+]2CC(O)(P(=O)([O-])O)P(=O)(O)O)c1 (centres undefined) | 260 | 279 | 261 |  |
| O=P([O-])(O)C(C[n+]1ccccc1)P(=O)(O)O (centres undefined) | 72.3 | 109 | 65.1 |  |
| CCc1ccc[n+](CC(P(=O)([O-])O)P(=O)(O)O)c1 (centres undefined) | 42.6 | 62 | 44.8 |  |
| O=P(O)(O)C(O)(CCc1cccc(-c2cccc(-c3ccccc3)c2)c1)P(=O)(O)O | 43.9 | 46.9 | 44.7 |  |
| O=P(O)(O)C(O)(Cc1ccc(-c2cccc(-c3ccccc3)c2)cc1)P(=O)(O)O | 412 | 413 | 620 |  |
| O=P([O-])(O)C(C[n+]1cccc(Cl)c1)P(=O)(O)O (centres undefined) | 132 | 59 | 72.7 |  |
| O=P([O-])(O)C(C[n+]1ccc(-c2ccc(-c3ccccc3)cc2)cc1)P(=O)(O)O (centres undefined) | > 10000 | > 10000 | > 10000 |  |
| O=P([O-])(O)C(C[n+]1cccc(-c2ccc(-c3ccccc3)cc2)c1)P(=O)(O)O (centres undefined) | 25.1 | 21.5 | 23.2 |  |
| O=P([O-])(O)C(O)(C[n+]1ccc2ccccc2c1)P(=O)(O)O (centres undefined) | 288 | 297 | 260 |  |
| O=P([O-])(O)C(C[n+]1ccc(Cc2ccccc2)cc1)P(=O)(O)O (centres undefined) | 125 | 141 | 133 |  |
| O=P([O-])(O)C(O)(C[n+]1ccc(-c2ccccc2)cc1)P(=O)(O)O (centres undefined) | 304 | 312 | 290 |  |
| O=P([O-])(O)C(C[n+]1cccc(-c2ccccc2)c1)P(=O)(O)O (centres undefined) | 34.6 | 41.3 | 43.6 |  |
| O=P(O)(O)C(Nc1ncccc1OCc1ccccc1)P(=O)(O)O | 339 | 3210 | 399 |  |
| CCC(C)CNC(P(=O)(O)O)P(=O)(O)O (centres undefined) | 447 | 469 | 301 |  |
| CN(CCCCc1ccccc1)CCC(O)(P(=O)(O)O)P(=O)(O)O | 82.5 | 22.9 | 49.2 |  |
| NCCC(O)(P(=O)(O)O)P(=O)(O)O [PAMIDRONIC ACID] | 141 | 71.8 | 408 | 33.6 |
| O=P(O)(O)C(O)(Cc1cccnc1)P(=O)(O)O [RISEDRONIC ACID] | 35.7 | 43.7 | 23.3 | > 40 |
| O=P(O)(O)C(O)(Cn1ccnc1)P(=O)(O)O [ZOLEDRONIC ACID] | 27.7 | 11.7 | 14.3 |  |
